The results in this text go back to ChEMBL document CHEMBL1909046, “DrugMatrix in vitro pharmacology data”.

In general, IC50 refers to the concentration at which inhibition is half-maximal. One may read the Ki as a measure of affinity in units of concentration, obtained from inhibition or displacement.

*1 amine or outer side, *2 acyl side, *3 side chain or, on linkers, in order; H or OH if unused. Where a SMILES comes first, the peptide text is derived from it. Bridges are numbered along the chain shown (N, C = ends). Roman numbers before positions name the chains, in order. [ ]: non-standard residue; d: D form. Actinocin(1to9) = Cc1c2oc3c(C)ccc(C(=O)[*:2])c3nc-2c(C(=O)[*:1])c(N)c1=O; NMeV = CN[C@H](C(=O)O)C(C)C; Sar = CNCC(=O)O

Data set [1] is described as follows: DRUGMATRIX: Calcium Channel Type L, Benzothiazepine radioligand binding (ligand: [3H] Diltiazem). The format is cell membranes, Rattus norvegicus, Wistar, Brain, Membrane. The following applies: Not Active = under 50% inhibition at 10 µM.
The target of a further data set is Cytochrome P450 3A4 (Homo sapiens, UniProt P08684). The following applies: bti-tn-5b1-4. Further: in other assays of this panel Not Active means under 50% inhibition at 10 µM.
Cytochrome P450 3A4, sequence (P08684 whole entry): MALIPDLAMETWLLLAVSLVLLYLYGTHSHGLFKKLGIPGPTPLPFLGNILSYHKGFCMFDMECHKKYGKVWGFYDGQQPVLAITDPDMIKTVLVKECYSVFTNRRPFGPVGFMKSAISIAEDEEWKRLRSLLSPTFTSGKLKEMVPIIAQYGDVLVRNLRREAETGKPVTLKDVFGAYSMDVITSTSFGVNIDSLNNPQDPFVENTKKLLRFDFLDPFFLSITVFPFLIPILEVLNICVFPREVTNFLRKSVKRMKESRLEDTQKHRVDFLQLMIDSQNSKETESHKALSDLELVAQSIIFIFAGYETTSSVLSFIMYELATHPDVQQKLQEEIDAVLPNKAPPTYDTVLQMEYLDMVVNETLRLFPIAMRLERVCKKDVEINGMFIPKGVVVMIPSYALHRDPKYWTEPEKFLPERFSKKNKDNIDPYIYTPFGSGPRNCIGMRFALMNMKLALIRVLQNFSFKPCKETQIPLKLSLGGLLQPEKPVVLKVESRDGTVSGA
The target of data set [2] is T1, Vasoactive intestinal polypeptide receptor 1 (Homo sapiens, UniProt P32241). Further: in other assays of this panel Not Active means under 50% inhibition at 10 µM.
T1 sequence (P32241 whole entry): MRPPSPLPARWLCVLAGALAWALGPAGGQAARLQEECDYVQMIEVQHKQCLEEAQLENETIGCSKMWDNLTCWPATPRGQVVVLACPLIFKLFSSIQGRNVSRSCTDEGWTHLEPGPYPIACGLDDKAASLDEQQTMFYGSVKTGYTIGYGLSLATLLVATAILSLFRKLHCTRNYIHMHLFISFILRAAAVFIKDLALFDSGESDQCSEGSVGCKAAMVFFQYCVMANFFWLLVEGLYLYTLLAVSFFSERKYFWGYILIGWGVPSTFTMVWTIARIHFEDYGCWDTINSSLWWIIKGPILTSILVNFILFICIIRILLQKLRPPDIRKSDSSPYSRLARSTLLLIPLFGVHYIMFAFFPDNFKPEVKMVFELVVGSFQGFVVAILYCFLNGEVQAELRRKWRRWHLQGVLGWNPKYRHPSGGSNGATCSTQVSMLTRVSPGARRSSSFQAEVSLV
The format is cell membranes, Membrane. Particulars: ht-29.

Data set [3] can be described thus: DRUGMATRIX: Calcium Channel Type L, Dihydropyridine radioligand binding (ligand: [3H] Nitrendipine). Type of data set: cell membranes, Rattus norvegicus, Wistar, Cerebral cortex, Membrane. The following applies: Not Active = under 50% inhibition at 10 µM.
Data set [4] has as its target 5-hydroxytryptamine receptor 2B (Homo sapiens, UniProt P41595). Type of data set: cell membranes, CHO-K1, Membrane. Further: in other assays of this panel Not Active means under 50% inhibition at 10 µM.
Another data set has as its target T2, Adenosine receptor A3 (Homo sapiens, UniProt P0DMS8).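 Further: radioligand binding assay with AB-MECA serving as the labeled ligand; in other assays of this panel Not Active means under 50% inhibition at 10 µM.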
T2 sequence (P0DMS8 whole entry): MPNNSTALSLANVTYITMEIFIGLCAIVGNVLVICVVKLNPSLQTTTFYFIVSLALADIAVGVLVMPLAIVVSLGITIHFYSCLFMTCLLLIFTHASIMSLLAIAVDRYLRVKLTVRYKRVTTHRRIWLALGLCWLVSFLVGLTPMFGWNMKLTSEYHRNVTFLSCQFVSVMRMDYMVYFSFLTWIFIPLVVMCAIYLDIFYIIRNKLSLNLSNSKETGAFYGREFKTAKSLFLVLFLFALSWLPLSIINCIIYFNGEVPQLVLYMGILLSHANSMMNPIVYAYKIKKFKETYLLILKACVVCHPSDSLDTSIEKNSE
The format is cell membranes, CHO-K1, Membrane.

5-hydroxytryptamine receptor 2B, sequence (P41595 whole entry): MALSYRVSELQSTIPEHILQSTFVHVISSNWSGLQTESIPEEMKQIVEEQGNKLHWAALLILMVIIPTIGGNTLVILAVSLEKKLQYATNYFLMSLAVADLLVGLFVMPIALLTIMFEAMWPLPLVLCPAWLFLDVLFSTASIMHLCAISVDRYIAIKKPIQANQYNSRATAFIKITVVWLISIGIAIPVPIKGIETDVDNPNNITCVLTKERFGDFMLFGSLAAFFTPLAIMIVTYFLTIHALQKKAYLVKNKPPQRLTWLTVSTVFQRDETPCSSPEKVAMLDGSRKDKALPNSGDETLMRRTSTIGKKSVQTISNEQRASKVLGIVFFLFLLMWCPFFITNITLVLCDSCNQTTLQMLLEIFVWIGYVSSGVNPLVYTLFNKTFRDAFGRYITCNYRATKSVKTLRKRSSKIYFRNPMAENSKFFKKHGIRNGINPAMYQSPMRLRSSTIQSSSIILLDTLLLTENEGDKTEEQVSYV

With `CCOC(=O)C1=C(COCCN)NC(C)=C(C(=O)OC)C1c1ccccc1Cl` (stereo not given) [AMLODIPINE], the concentration for half-maximal inhibition (IC50) is 0.101 µM in data set [1] (read-out: IC50); “Not Active” against Cytochrome P450 3A4; “Not Active” in data set [2]; 0.031 µM in data set [3] (read-out: IC50); “Not Active” in data set [4] (cho-k1); “Not Active” on Adenosine receptor A3 (cho-k1). In addition, the Ki in data set [1] (read-out: Ki) is 0.09 µM; at Cytochrome P450 3A4, “Not Active”; in data set [3] (read-out: Ki), 0.02 µM.

`CC1Cc2ccccc2N1NC(=O)c1ccc(Cl)c(S(N)(=O)=O)c1` (stereo not given) [INDAPAMIDE]: the half-inhibitory concentration (IC50) result (in data set [1]; against Cytochrome P450 3A4; in data set [2]; in data set [3]; in data set [4] (cho-k1); against Adenosine receptor A3 (cho-k1)) was “Not Active” throughout. In addition, the inhibition constant Ki result (in data set [1]; on Cytochrome P450 3A4; in data set [3]) was “Not Active” each time.

On to LEAD (II) ACETATE, for which the IC50 result (in data set [1]; against Cytochrome P450 3A4; in data set [2]; in data set [3]; in data set [4] (cho-k1); on Adenosine receptor A3 (cho-k1)) was “Not Active” each time. The Ki result (in data set [1]; at Cytochrome P450 3A4; in data set [2]; in data set [3]; in data set [4] (cho-k1); on Adenosine receptor A3 (cho-k1)) was “Not Active” throughout.

Take `Cc1c2oc3c(C)ccc(C(=O)N[C@@H]4C(=O)N[C@H](C(C)C)C(=O)N5CCC[C@H]5C(=O)N(C)CC(=O)N(C)[C@@H](C(C)C)C(=O)O[C@@H]4C)c3nc-2c(C(=O)N[C@@H]2C(=O)N[C@H](C(C)C)C(=O)N3CCC[C@H]3C(=O)N(C)CC(=O)N(C)[C@@H](C(C)C)C(=O)O[C@@H]2C)c(N)c1=O` [DACTINOMYCIN] (I: T[dV]P[Sar][NMeV] / II: T[dV]P[Sar][NMeV]; ester I:1-I:C, II:1-II:C; linker I:N-II:N via Actinocin(1to9)): the concentration for half-maximal inhibition (IC50) entry (in data set [1]; against Cytochrome P450 3A4; in data set [2]; in data set [3]; in data set [4] (cho-k1); against Adenosine receptor A3 (cho-k1)) was “Not Active” in each case. Further, the Ki entry (in data set [1]; at Cytochrome P450 3A4; in data set [3]) was “Not Active” in each case.

For the compound `NCCCCCC(=O)O` [AMINOCAPROIC ACID], the half-maximal inhibitory concentration (IC50) entry (in data set [1]; against Cytochrome P450 3A4; in data set [2]; in data set [3]; in data set [4] (cho-k1); on Adenosine receptor A3 (cho-k1)) was “Not Active” throughout. Moreover, the Ki result (in data set [1]; at Cytochrome P450 3A4; in data set [3]) was “Not Active” in each case.

Consider `c1ccc(Nc2ccc(Nc3ccccc3)cc2)cc1`, for which the half-inhibitory concentration (IC50) entry in data set [1] is “Not Active”; against Cytochrome P450 3A4, “Not Active”; in data set [2] it was “Not Active”; in data set [3] it was “Not Active”; in data set [4] (read-out: IC50), 0.142 µM; against Adenosine receptor A3 (cho-k1), “Not Active”. The Ki result in data set [1] was “Not Active”; at Cytochrome P450 3A4 it was “Not Active”; in data set [3] it was “Not Active”; in data set [4] (read-out: Ki) it was 0.09 µM.

As to `NC(=O)N1c2ccccc2CCc2ccccc21`, the concentration for half-maximal inhibition (IC50) entry (in data set [1]; against Cytochrome P450 3A4; in data set [2]; in data set [3]; in data set [4] (cho-k1); at Adenosine receptor A3 (cho-k1)) was “Not Active” each time. The Ki result (in data set [1]; at Cytochrome P450 3A4; in data set [3]) was “Not Active” throughout.

On to `Cc1ccc(-c2cc(C(F)(F)F)nn2-c2ccc(S(N)(=O)=O)cc2)cc1` [CELECOXIB], for which the IC50 entry was “Not Active” in data set [1]; “Not Active” against Cytochrome P450 3A4; “Not Active” in data set [2]; 24.6 µM in data set [3] (read-out: IC50); “Not Active” in data set [4] (cho-k1); 24.6 µM at Adenosine receptor A3 (read-out: IC50). In addition, the Ki entry in data set [1] is “Not Active”; on Cytochrome P450 3A4 it was “Not Active”; in data set [3] (read-out: Ki), 15.8 µM; at Adenosine receptor A3 (read-out: Ki), 13.9 µM.

For `Cc1onc(-c2ccccc2Cl)c1C(=O)N[C@@H]1C(=O)N2[C@@H]1SC(C)(C)[C@@H]2C(=O)O` [CLOXACILLIN], the IC50 result (in data set [1]; against Cytochrome P450 3A4; in data set [2]; in data set [3]; in data set [4] (cho-k1); against Adenosine receptor A3 (cho-k1)) was “Not Active” throughout. The Ki entry (in data set [1]; on Cytochrome P450 3A4; in data set [3]) was “Not Active” throughout.

Regarding `CCCN1C[C@H](CSC)C[C@@H]2c3cccc4[nH]cc(c34)C[C@H]21` [PERGOLIDE], the IC50 is 3.3 µM in data set [1] (read-out: IC50); “Not Active” against Cytochrome P450 3A4; “Not Active” in data set [2]; “Not Active” in data set [3]; 0.076 µM in data set [4] (read-out: IC50); “Not Active” at Adenosine receptor A3 (cho-k1). In addition, the Ki in data set [1] (read-out: Ki) was 2.93 µM; on Cytochrome P450 3A4 it was “Not Active”; in data set [3], “Not Active”; in data set [4] (read-out: Ki) it was 0.049 µM.

As to LIPOPOLYSACCHARIDE E. COLI O55:B5, the IC50 entry (in data set [1]; at Cytochrome P450 3A4; in data set [2]; in data set [3]; in data set [4] (cho-k1); at Adenosine receptor A3 (cho-k1)) was “Not Active” each time. The inhibition constant (Ki) entry (in data set [1]; at Cytochrome P450 3A4; in data set [2]; in data set [3]; in data set [4] (cho-k1); at Adenosine receptor A3 (cho-k1)) was “Not Active” each time.

For `CC(O)CO` (stereo not given) [PROPYLENE GLYCOL], the half-maximal inhibitory concentration (IC50) result (in data set [1]; against Cytochrome P450 3A4; in data set [2]; in data set [3]; in data set [4] (cho-k1); at Adenosine receptor A3 (cho-k1)) was “Not Active” in each case. For the same compound, the Ki entry (in data set [1]; at Cytochrome P450 3A4; in data set [3]) was “Not Active” each time.

For `CC(C)C(Br)C(=O)NC(N)=O` (stereo not given) [BROMISOVALUM], the IC50 result (in data set [1]; on Cytochrome P450 3A4; in data set [2]; in data set [3]; in data set [4] (cho-k1); on Adenosine receptor A3 (cho-k1)) was “Not Active” in each case. The Ki entry (in data set [1]; at Cytochrome P450 3A4; in data set [3]) was “Not Active” throughout.

As for `CC(C)(C)NCC(O)c1cc(Cl)c(N)c(Cl)c1` (stereo not given) [CLENBUTEROL], the half-maximal inhibitory concentration (IC50) result (in data set [1]; on Cytochrome P450 3A4; in data set [2]; in data set [3]; in data set [4] (cho-k1); against Adenosine receptor A3 (cho-k1)) was “Not Active” throughout. The inhibition constant (Ki) entry (in data set [1]; on Cytochrome P450 3A4; in data set [3]) was “Not Active” each time.

Regarding `C[C@](N)(Cc1ccc(O)c(O)c1)C(=O)O` [METHYLDOPA], the half-maximal inhibitory concentration (IC50) result (in data set [1]; against Cytochrome P450 3A4; in data set [2]; in data set [3]; in data set [4] (cho-k1); at Adenosine receptor A3 (cho-k1)) was “Not Active” throughout. The inhibition constant (Ki) result (in data set [1]; on Cytochrome P450 3A4; in data set [3]) was “Not Active” each time.

On to `Cc1ccccc1N1C(=O)c2cc(S(N)(=O)=O)c(Cl)cc2NC1C` (stereo not given) [METOLAZONE], for which the IC50 result (in data set [1]; at Cytochrome P450 3A4; in data set [2]; in data set [3]; in data set [4] (cho-k1); against Adenosine receptor A3 (cho-k1)) was “Not Active” in each case. Also, the Ki result (in data set [1]; at Cytochrome P450 3A4; in data set [3]) was “Not Active” each time.

Consider `Nc1nc2c(ncn2CCC(CO)CO)c(=O)[nH]1` [PENCICLOVIR], for which the IC50 entry (in data set [1]; against Cytochrome P450 3A4; in data set [2]; in data set [3]; in data set [4] (cho-k1); against Adenosine receptor A3 (cho-k1)) was “Not Active” throughout. The Ki entry (in data set [1]; on Cytochrome P450 3A4; in data set [3]) was “Not Active” each time.

Turning to `CCOc1ccc(NC(C)=O)cc1` [PHENACETIN], the concentration for half-maximal inhibition (IC50) entry (in data set [1]; on Cytochrome P450 3A4; in data set [2]; in data set [3]; in data set [4] (cho-k1); on Adenosine receptor A3 (cho-k1)) was “Not Active” in each case. Besides, the Ki entry (in data set [1]; on Cytochrome P450 3A4; in data set [3]) was “Not Active” in each case.

For the compound `NC1=NC(=O)C(c2ccccc2)O1` (stereo not given) [PEMOLINE], the IC50 entry (in data set [1]; on Cytochrome P450 3A4; in data set [2]; in data set [3]; in data set [4] (cho-k1); at Adenosine receptor A3 (cho-k1)) was “Not Active” throughout. In addition, the Ki entry (in data set [1]; at Cytochrome P450 3A4; in data set [3]) was “Not Active” in each case.
